The subject of the experiment is cholecystokinin (CCK) level in plasma. Nature of the experiment: Plasma CCK levels in human volunteers after ingestion of test substance in orange juice (RIA). Type of experiment: in vivo. Particulars: healthy fasted human volunteers, n = 8. As to the method: The experiment described below was performed in a double-blind, four period, randomised, cross-over, placebo controlled study.
Eight healthy human volunteers were divided into four groups of two, and were refrained from any food overnight.
The experiment was repeated four times such, that all the eight volunteers eventually obtained aal the four test substances. During the four hours following the ingestion of the orange juice, blood was taken from the test persons at t=0, 30, 60 90, 120, 180 and 240 minutes after ingestion. CCK analysis was carried out using a radio-immunoassay (RIA) kit of Euro-Diagnostica (cat nr. #RB302) according to the instructions of the manufacturer.

Turning to `N[C@@H](Cc1c[nH]c2ccccc12)C(=O)O` [Tryptophan, tryptophan], the “Mean CCK levels in plasma” value reads like this: (0 minutes after ingestion, oral in 200 ml orange juice (25 g glucose), mean ± spread) 0.64 ± 0.78 pmol/L; (30 minutes after ingestion, oral in orange juice) 1.49 ± 1.04 pmol/L; (60 minutes after ingestion, oral in orange juice) 1.05 ± 1.06 pmol/L; (90 minutes after ingestion, oral in orange juice) 0.83 ± 0.84 pmol/L; (120 minutes after ingestion, oral in orange juice) 0.34 ± 0.11 pmol/L; (180 minutes after ingestion, oral in orange juice) 0.30 ± 0.00 pmol/L. The “Mean CCK levels in plasma” value (240 minutes after ingestion, oral in orange juice) stood at 0.30 ± 0.00 pmol/L.

These data come from patent publication US7582601B2, “Use of tryptophan rich peptides” (Campina B.V., priority 2003, dated 2009).
